This is an account of results in patent US20090054392A1, “NAPHTHYLPYRIMIDINE, NAPHTHYLPYRAZINE AND NAPHTHYLPYRIDAZINE ANALOGS AND THEIR USE AS AGONISTS OF THE WNT-BETA-CATENIN CELLULAR MESSAGING SYSTEM” (Wyeth, priority 2007, published 2009).

Each structure is given as a SMILES string.

Usually EC50 stands for the concentration that produces a half-maximal response. Higher therefore signals lower potency in that assay.

For the data set, the system named is Dkk1-LRP5-TCF-Luciferase. The experiment in a line: Functional Dkk1-LRP5-TCF-Luciferase Assay in U2OS Cells. To be noted: for fold induction at 2 µM / fold induction at 20 µM / EC50: Homo sapiens, U2OS; for fold induction at 2 µM: read-out: B = TCF ACTIVITY/DMSO CONTROL Fold induction @ 2.0 uM, 2.0 uM compound; for fold induction at 20 µM: read-out: C = TCF ACTIVITY/DMSO CONTROL Fold induction @ 20.0 uM, 20.0 uM compound; for A = MAX FOLD Induction/DMSO CONTROL: maximum fold induction over DMSO control.

Regarding `COC(=O)NCC1CCN(c2nccc(-c3ccc4ccccc4c3)n2)C1` (stereo not shown) [methyl ({1-[4-(2-naphthyl)pyrimidin-2-yl]pyrrolidin-3-yl}methyl)carbamate], the fold induction at 2 µM is 1.04 and the fold induction at 20 µM stood at 1.08.
With `COC(=O)C(NC(=O)OC(C)(C)C)=C1CCN(c2nccc(-c3ccc4ccccc4c3)n2)CC1` [methyl [(tert-butoxycarbonyl)amino]{1-[4-(2-naphthyl)pyrimidin-2-yl]piperidin-4-ylidene}acetate], the fold induction at 2 µM turned out to be 1.01 and the fold induction at 20 µM came to 1.24.
On to `COC(=O)C(NC(=O)OC(C)(C)C)C1CCN(c2nccc(-c3ccc4ccccc4c3)n2)CC1` (stereo not shown) [methyl [(tert-butoxycarbonyl)amino]{1-[4-(2-naphthyl)pyrimidin-2-yl]piperidin-4-yl}acetate], for which the fold induction at 20 µM was determined as 0.71.
With `COC(=O)C(N)C1CCN(c2nccc(-c3ccc4ccccc4c3)n2)CC1` (stereo not shown) [methyl amino{1-[4-(2-naphthyl)pyrimidin-2-yl]piperidin-4-yl}acetate], the 50% effective concentration (EC50) was 3.3 µM, the fold induction at 20 µM is 0.03 and the “A = MAX FOLD Induction/DMSO CONTROL” value stood at 2.360 fold.
Regarding `COC(=O)N(C)CCN(C)[C@@H]1CCN(c2nccc(-c3ccc4ccccc4c3)n2)C1` [methyl methyl[2-(methyl{(3R)-1-[4-(2-naphthyl)pyrimidin-2-yl]pyrrolidin-3-yl}amino)ethyl]carbamate], the fold induction at 20 µM was 1.2.
Take `COC(=O)N[C@@H]1CCN(c2nccc(-c3ccc4ccccc4c3)n2)C1` [methyl {(3R)-1-[4-(2-naphthyl)pyrimidin-2-yl]pyrrolidin-3-yl}carbamate]: the fold induction at 2 µM was determined as 2.2, the fold induction at 20 µM came to 0.43 and the “A = MAX FOLD Induction/DMSO CONTROL” value is given as 0.890 fold.
In the case of `COC(=O)N[C@H]1CCN(c2nccc(-c3ccc4ccccc4c3)n2)C1` [methyl {(3S)-1-[4-(2-naphthyl)pyrimidin-2-yl]pyrrolidin-3-yl}carbamate], the fold induction at 2 µM came out at 1.03 and the fold induction at 20 µM came to 1.63.
The like results for `CC(C)(C)OC(=O)N1CC(CNc2nccc(-c3ccc4ccccc4c3)n2)C1` [tert-butyl 3-({[4-(2-naphthyl)pyrimidin-2-yl]amino}methyl)azetidine-1-carboxylate] were, in that order, 1.8 and 1.02.
With `COC(=O)C(Nc1nccc(-c2ccc3ccccc3c2)n1)C1CCN(C(=O)OC(C)(C)C)CC1` (stereo not shown) [tert-butyl 4-(2-methoxy-1-{[4-(2-naphthyl)pyrimidin-2-yl]amino}-2-oxoethyl)piperidine-1-carboxylate], the fold induction at 2 µM stood at 1.62.
Still for that read-out and setting: the result for `CC(C)(C)OC(=O)N1CCN(C[C@H]2CCN(c3nccc(-c4ccc5ccccc5c4)n3)C2)CC1` [tert-butyl 4-({(3R)-1-[4-(2-naphthyl)pyrimidin-2-yl]pyrrolidin-3-yl}methyl)piperazine-1-carboxylate] reads 1.95.
Take `CC(C)(C)OC(=O)N1CCN(C[C@@H]2CCN(c3nccc(-c4ccc5ccccc5c4)n3)C2)CC1` [tert-butyl 4-({(3S)-1-[4-(2-naphthyl)pyrimidin-2-yl]pyrrolidin-3-yl}methyl)piperazine-1-carboxylate]: the fold induction at 2 µM was 1.16 and the fold induction at 20 µM came to 0.85.
Consider `CC(C)(C)OC(=O)N1CCC(CNc2nccc(-c3ccc4ccccc4c3)n2)CC1` [tert-butyl 4-({[4-(2-naphthyl)pyrimidin-2-yl]amino}methyl)piperidine-1-carboxylate], for which the fold induction at 2 µM was found to be 0.93 and the fold induction at 20 µM stood at 1.18.
For `CC(C)(C)OC(=O)N1CCN(c2nccc(-c3ccc4ccccc4c3)n2)CC1` [tert-butyl 4-[4-(2-naphthyl)pyrimidin-2-yl]piperazine-1-carboxylate] the same measures were 0.98 and 1.94.
Turning to `CC(C)(C)OC(=O)N1CCC(Nc2nccc(-c3ccc4ccccc4c3)n2)CC1` [tert-butyl 4-{[4-(2-naphthyl)pyrimidin-2-yl]amino}piperidine-1-carboxylate], the fold induction at 2 µM came to 1 and the fold induction at 20 µM was found to be 1.41.
As to `CN(c1nccc(-c2ccc3ccccc3c2)n1)C1CCN(C(=O)OC(C)(C)C)CC1` [tert-butyl 4-{methyl[4-(2-naphthyl)pyrimidin-2-yl]amino}piperidine-1-carboxylate], the fold induction at 2 µM stood at 0.98 and the fold induction at 20 µM was 1.92.
`CC(NC(=O)OC(C)(C)C)C1CCN(c2nccc(-c3ccc4ccccc4c3)n2)CC1` (stereo not shown) [tert-butyl (1-{1-[4-(2-naphthyl)pyrimidin-2-yl]piperidin-4-yl}ethyl)carbamate]: the fold induction at 20 µM was 0.81.
On to `CC(C)(C)OC(=O)NC1CCCC(Nc2nccc(-c3ccc4ccccc4c3)n2)C1` (stereo not shown) [tert-butyl (3-{[4-(2-naphthyl)pyrimidin-2-yl]amino}cyclohexyl)carbamate], for which the fold induction at 2 µM is 1.07 and the fold induction at 20 µM worked out at 0.3.
For `CC(C)(C)OC(=O)N1CC[C@H](CNc2nccc(-c3ccc4ccccc4c3)n2)C1` [tert-butyl (3R)-3-({[4-(2-naphthyl)pyrimidin-2-yl]amino}methyl)pyrrolidine-1-carboxylate], the fold induction at 2 µM is 1.83.
On to `CC(C)(C)OC(=O)N1CC[C@@H](Nc2nccc(-c3ccc4ccccc4c3)n2)C1` [tert-butyl (3R)-3-{[4-(2-naphthyl)pyrimidin-2-yl]amino}pyrrolidine-1-carboxylate], for which the fold induction at 2 µM was determined as 2.38, the fold induction at 20 µM was found to be 0.01 and the “A = MAX FOLD Induction/DMSO CONTROL” value turned out to be 0.800 fold.
Consider `CC(C)(C)OC(=O)N1CC[C@@H](CNc2nccc(-c3ccc4ccccc4c3)n2)C1` [tert-butyl (3S)-3-({[4-(2-naphthyl)pyrimidin-2-yl]amino}methyl)pyrrolidine-1-carboxylate], for which the fold induction at 20 µM was 0.01.
`CC(C)(C)OC(=O)N1CC[C@H](Nc2nccc(-c3ccc4ccccc4c3)n2)C1` [tert-butyl (3S)-3-{[4-(2-naphthyl)pyrimidin-2-yl]amino}pyrrolidine-1-carboxylate]: the fold induction at 2 µM is 2.11 and the “A = MAX FOLD Induction/DMSO CONTROL” value is given as 1.270 fold.
As for `CC(C)(C)OC(=O)N[C@@H](CO)C1CCN(c2nccc(-c3ccc4ccccc4c3)n2)CC1` [tert-butyl ((1R)-2-hydroxy-1-{1-[4-(2-naphthyl)pyrimidin-2-yl]piperidin-4-yl}ethyl)carbamate], the fold induction at 2 µM is 1.13 and the fold induction at 20 µM came out at 0.35.
For the compound `CC(C)(C)OC(=O)N[C@H](C1CCN(c2nccc(-c3ccc4ccccc4c3)n2)CC1)C(C)(C)O` [tert-butyl ((1R)-2-hydroxy-2-methyl-1-{1-[4-(2-naphthyl)pyrimidin-2-yl]piperidin-4-yl}propyl)carbamate], the fold induction at 2 µM was 1.79.
In the case of `C[C@H](NC(=O)OC(C)(C)C)C1CCN(c2nccc(-c3ccc4ccccc4c3)n2)CC1` [tert-butyl ((1S)-1-{1-[4-(2-naphthyl)pyrimidin-2-yl]piperidin-4-yl}ethyl)carbamate], the fold induction at 20 µM was 1.08.
For `CC(C)(C)OC(=O)N[C@H](CO)C1CCN(c2nccc(-c3ccc4ccccc4c3)n2)CC1` [tert-butyl ((1S)-2-hydroxy-1-{1-[4-(2-naphthyl)pyrimidin-2-yl]piperidin-4-yl}ethyl)carbamate], the fold induction at 2 µM amounted to 1.22 and the fold induction at 20 µM is 0.44.
For `CC(C)(C)OC(=O)NCC1CN(c2nccc(-c3ccc4ccccc4c3)n2)C1` [tert-butyl ({1-[4-(2-naphthyl)pyrimidin-2-yl]azetidin-3-yl}methyl)carbamate] the same measures were 1.41 and 0.46.
The like results for `CC(C)(C)OC(=O)NCC1CCCN(c2nccc(-c3ccc4ccccc4c3)n2)C1` (stereo not shown) [tert-butyl ({1-[4-(2-naphthyl)pyrimidin-2-yl]piperidin-3-yl}methyl)carbamate] were, in that order, 0.91 and 1.94.
Consider `CC(C)(C)OC(=O)NCC1CCN(c2nccc(-c3ccc4ccccc4c3)n2)C1` (stereo not shown) [tert-butyl ({1-[4-(2-naphthyl)pyrimidin-2-yl]pyrrolidin-3-yl}methyl)carbamate], for which the fold induction at 2 µM came to 1.09 and the fold induction at 20 µM worked out at 0.17.
The like results for `CC(C)(C)OC(=O)NC1CCCN(c2nccc(-c3ccc4ccccc4c3)n2)CC1` (stereo not shown) [tert-butyl {1-[4-(2-naphthyl)pyrimidin-2-yl]azepan-4-yl}carbamate] were, in that order, 1.34 and 0.33.
For `CC(C)(C)OC(=O)NC1CCN(c2nccc(-c3ccc4ccccc4c3)n2)CC1` [tert-butyl {1-[4-(2-naphthyl)pyrimidin-2-yl]piperidin-4-yl}carbamate] the same measures were 0.93 and 1.91.
With `CC(C)(C)OC(=O)NCCC1CN(c2nccc(-c3ccc4ccccc4c3)n2)C1` [tert-butyl {2-[1-(4-naphthalen-2-ylpyrimidin-2-yl)azetidin-3-yl]ethyl}carbamate], the fold induction at 20 µM came out at 1.6.
For `CC(C)(C)OC(=O)N[C@@H]1CCN(c2nccc(-c3ccc4ccccc4c3)n2)C1` [tert-butyl {(3R)-1-[4-(2-naphthyl)pyrimidin-2-yl]pyrrolidin-3-yl}carbamate], the fold induction at 2 µM turned out to be 1.95.
Same read-out and setting: the result for `CC(C)(C)OC(=O)N[C@H]1CCN(c2nccc(-c3ccc4ccccc4c3)n2)C1` [tert-butyl {(3S)-1-[4-(2-naphthyl)pyrimidin-2-yl]pyrrolidin-3-yl}carbamate] reads 1.51.
Regarding `N[C@H]1CC[C@H](Nc2nccc(-c3ccc4ccccc4c3)n2)CC1` [trans-N-[4-(2-naphthyl)pyrimidin-2-yl]cyclohexane-1,4-diamine], the EC50 turned out to be 3.7 µM, the fold induction at 2 µM was determined as 1.91, the fold induction at 20 µM amounted to 3.95 and the “A = MAX FOLD Induction/DMSO CONTROL” value stood at 4.730 fold.
